Values joined by “and” are separate entries in the source; they are usually repeats but may differ in a detail not shown here. Equal values may be shown once. Toxic doses and inconclusive results are not listed. Rule for the calls: active = survival T/C of 150% or more; inactive = T/C below 125% in these data.
Test system: BDF1 mice, Lewis lung carcinoma iv, survival T/C
Assay: NCI In Vivo Anticancer Drug Screen. Data for tumor model Lewis Lung Carcinoma (intravenous) in B6D2F1 (BDF1) mice
Settings: endpoint: median survival time, higher = longer survival
Method: The antitumor activity of compounds was measured in mice bearing transplantable tumors. Survival or tumor size were measured and the results are expressed as the measurement made in the treated group (T) divided by the measurement made in the vehicle treated control group (C). The tumor model used in this assay is Lewis Lung Carcinoma (intravenous) in B6D2F1 (BDF1) mice

[1] = dose: 12.5 mg/kg/injection, schedule: Q01DX009 (ip), vehicle: saline with Tween-80
[2] = dose: 25.0 mg/kg/injection, schedule: Q01DX009 (ip), vehicle: saline with Tween-80
[3] = dose: 50.0 mg/kg/injection, schedule: Q01DX009 (ip), vehicle: saline with Tween-80
[4] = dose: 100.0 mg/kg/injection, schedule: Q01DX009 (ip), vehicle: saline with Tween-80
[5] = dose: 12.5 mg/kg/injection, schedule: Q01DX009 (ip), vehicle: saline
[6] = dose: 25.0 mg/kg/injection, schedule: Q01DX009 (ip), vehicle: saline
[7] = dose: 50.0 mg/kg/injection, schedule: Q01DX009 (ip), vehicle: saline
[8] = dose: 100.0 mg/kg/injection, schedule: Q01DX009 (ip), vehicle: saline
[9] = dose: 200.0 mg/kg/injection, schedule: Q01DX009 (ip), vehicle: saline
[10] = dose: 6.25 mg/kg/injection, schedule: Q01DX009 (ip), vehicle: saline with Tween-80
[11] = dose: 200.0 mg/kg/injection, schedule: Q01DX009 (ip), vehicle: saline with Tween-80
[12] = dose: 400.0 mg/kg/injection, schedule: Q01DX009 (ip), vehicle: saline with Tween-80
[13] = dose: 12.5 mg/kg/injection, schedule: Q01DX009 (ip), vehicle: Klucel (hydroxypropylcellulose) (HPC)
[14] = dose: 25.0 mg/kg/injection, schedule: Q01DX009 (ip), vehicle: Klucel (hydroxypropylcellulose) (HPC)
[15] = dose: 50.0 mg/kg/injection, schedule: Q01DX009 (ip), vehicle: Klucel (hydroxypropylcellulose) (HPC)
[16] = dose: 100.0 mg/kg/injection, schedule: Q01DX009 (ip), vehicle: Klucel (hydroxypropylcellulose) (HPC)
[17] = dose: 6.25 mg/kg/injection, schedule: Q01DX009 (ip), vehicle: saline
[18] = dose: 400.0 mg/kg/injection, schedule: Q01DX009 (ip), vehicle: saline
[19] = dose: 3.12 mg/kg/injection, schedule: Q01DX009 (ip), vehicle: saline with Tween-80

Measured: T/C

CCc1ncnc2cc(OCC3CO3)c(OC)cc12 (stereo not given)
inactive: dose: 6.25 mg/kg/injection, schedule: Q01DX009 (ip), vehicle: suspension in saline 98 % of control | dose: 12.5 mg/kg/injection, schedule: Q01DX009 (ip), vehicle: suspension in saline 104 % of control | dose: 25.0 mg/kg/injection, schedule: Q01DX009 (ip), vehicle: suspension in saline 93 % of control

Cc1cc2nc(Cc3nc4cc(C)c(C)cc4[nH]3)[nH]c2cc1C
inactive: [1] 95 % of control | [2] 109 % of control | [3] 97 % of control and 104 % of control | [4] 100 % of control

CC(=O)OCC12C3CC(=O)OC1C(OC(=O)C=C(C)C)C1C(C)=CC(=O)C(OC(C)=O)C1(C)C2C(=O)C(OC(C)=O)C3C (stereo not given)
inactive: dose: 0.25 mg/kg/injection, schedule: Q01DX009 (ip), vehicle: saline 86 % of control | dose: 0.5 mg/kg/injection, schedule: Q01DX009 (ip), vehicle: saline 107 % of control | dose: 1.0 mg/kg/injection, schedule: Q01DX009 (ip), vehicle: saline 91 % of control | dose: 2.0 mg/kg/injection, schedule: Q01DX009 (ip), vehicle: saline 102 % of control | dose: 4.0 mg/kg/injection, schedule: Q01DX009 (ip), vehicle: saline 113 % of control

O=C1CCCCC1C(=O)C(F)(F)F (stereo not given)
inactive: dose: 50.0 mg/kg/injection, schedule: Q01DX009 (ip), vehicle: saline + Tween-80 + alcohol 100 % of control

NC1=NC(=O)N2CC12 (stereo not given)
inactive: [5] 107 % of control | [6] 110 % of control | [7] 105 % of control | [8] 105 % of control | [9] 109 % of control

CN(C)CCNc1ccc([N+](=O)[O-])c2sc3ccccc3c(=O)c12
active: [3] 153 % of control
inactive: [10] 106 % of control | [1] 109 % of control and 112 % of control | [2] 104 % of control

CC(=O)OC/C=C(C)/C=C/C=C(C)/C=C/C1=C(C)CCCC1(C)C
inactive: dose: 6.25 mg/kg/injection, schedule: Q01DX005 (ip), vehicle: saline with Tween-80 115 % of control | dose: 12.5 mg/kg/injection, schedule: Q01DX005 (ip), vehicle: saline with Tween-80 91 % of control | dose: 25.0 mg/kg/injection, schedule: Q01DX005 (ip), vehicle: saline with Tween-80 97 % of control | dose: 50.0 mg/kg/injection, schedule: Q01DX005 (ip), vehicle: saline with Tween-80 97 % of control | dose: 100.0 mg/kg/injection, schedule: Q01DX005 (ip), vehicle: saline with Tween-80 98 % of control | dose: 200.0 mg/kg/injection, schedule: Q01DX005 (ip), vehicle: saline with Tween-80 104 % of control

O=C1OC(c2ccc(O)cc2)(c2ccc(Oc3ccccc3)cc2)c2ccccc21 (stereo not given)
inactive: [4] 105 % of control | [11] 112 % of control | [12] 99 % of control

COC(=O)c1[nH]c(=O)[nH]c(=O)c1F
inactive: [10] 106 % of control | [1] 115 % of control | [2] 98 % of control

C/C(=N\NC(N)=O)c1cccc(/C(C)=N/NC(N)=O)n1
inactive: [10] 104 % of control | [1] 100 % of control | [2] 98 % of control | [3] 103 % of control | [4] 106 % of control

CCOC(=O)C1C2OC(=O)C(C(=O)C2CN(CCCl)CCCl)C1C1CC=C(CC2=CCC(C3C4C(=O)OC(C(CN(CCCl)CCCl)C4=O)C3C(=O)OCC)CC2)CC1 (stereo not given)
inactive: [13] 104 % of control | [14] 104 % of control | [15] 102 % of control | [16] 111 % of control

CCCC(=O)O
inactive: [5] 93 % of control | [6] 104 % of control | [7] 95 % of control | [8] 112 % of control

Nc1ccn(C2OC(CO)C(O)C2O)c(=O)n1 (stereo not given)
inactive: [17] 98 % of control | dose: 980.0 mg/kg/injection, schedule: Q04DX003 (ip), vehicle: saline 121 % of control | dose: 2000.0 mg/kg/injection, schedule: Q04DX003 (ip), vehicle: saline 93 % of control
active: dose: 30.0 mg/kg/injection, schedule: Q01DX006 (ip), vehicle: saline 281 % of control | dose: 60.0 mg/kg/injection, schedule: Q01DX009 (ip), vehicle: saline 234 % of control

CC(=O)c1c(O)c(C)c(O)c2c1OC1=CC(=O)C(C(C)=O)C(=O)C12C (stereo not given)
inactive: dose: 50.0 mg/kg/injection, schedule: Q01DX009 (ip), vehicle: gum acacia 89 % of control

c1ccc2c3c(ccc2c1)Sc1ccc2ccccc2c1N3
inactive: [4] 111 % of control | [12] 102 % of control

OCC1OC(n2cnc3cc(Cl)c(Cl)cc32)C(O)C1O (stereo not given)
inactive: [10] 96 % of control | [1] 94 % of control | [2] 110 % of control | [3] 110 % of control | [4] 100 % of control | [11] 90 % of control

NC(N)=NOCC[C@@H](N)C(=O)O
inactive: [6] 105 % of control | [7] 99 % of control | [8] 107 % of control | [9] 94 % of control | [18] 112 % of control

CCOC(=O)C(N)CSC(=O)NC (stereo not given)
inactive: [6] 105 % of control | [7] 98 % of control | [8] 96 % of control | [9] 96 % of control | [18] 113 % of control

COC1/C=C\C=C(/C)C(=O)NC2=CC(=O)C=C(C2=O)C(OC)C(C)CC(OC)C(OC)C(C)/C=C(/C)C1OC(N)=O (stereo not given)
inactive: dose: 0.18 mg/kg/injection, schedule: Q01DX009 (ip), vehicle: Klucel (hydroxypropylcellulose) (HPC) 112 % of control | dose: 0.37 mg/kg/injection, schedule: Q01DX009 (ip), vehicle: Klucel (hydroxypropylcellulose) (HPC) 115 % of control | dose: 0.75 mg/kg/injection, schedule: Q01DX009 (ip), vehicle: Klucel (hydroxypropylcellulose) (HPC) 112 % of control | dose: 1.5 mg/kg/injection, schedule: Q01DX009 (ip), vehicle: Klucel (hydroxypropylcellulose) (HPC) 105 % of control

CCOC(=O)CNC(=O)CCCCSc1ncnc2nc[nH]c12
inactive: dose: 20.0 mg/kg/injection, schedule: Q01DX009 (ip), vehicle: Klucel (hydroxypropylcellulose) (HPC) 102 % of control | dose: 40.0 mg/kg/injection, schedule: Q01DX009 (ip), vehicle: Klucel (hydroxypropylcellulose) (HPC) 106 % of control | dose: 80.0 mg/kg/injection, schedule: Q01DX009 (ip), vehicle: Klucel (hydroxypropylcellulose) (HPC) 98 % of control | dose: 160.0 mg/kg/injection, schedule: Q01DX009 (ip), vehicle: Klucel (hydroxypropylcellulose) (HPC) 98 % of control | dose: 320.0 mg/kg/injection, schedule: Q01DX009 (ip), vehicle: Klucel (hydroxypropylcellulose) (HPC) 105 % of control

Cc1cc(NCCCCCCCNc2cc(C)nc3cc(N)ccc23)c2ccc(N)cc2n1
inactive: dose: 0.78 mg/kg/injection, schedule: Q01DX009 (ip), vehicle: saline with Tween-80 100 % of control | dose: 1.56 mg/kg/injection, schedule: Q01DX009 (ip), vehicle: saline with Tween-80 102 % of control | [19] 102 % of control | [10] 110 % of control | [1] 96 % of control

CCC1(O)CC2CN(CCc3c([nH]c4ccccc34)C(C(=O)OC)(c3cc4c(cc3OC)N(C)C3C(O)(C(=O)NCCSSCCNC(=O)C5(O)C(O)C6(CC)C=CCN7CCC8(c9cc(C%10(C(=O)OC)CC%11CN(CCc%12c%10[nH]c%10ccccc%12%10)CC(O)(CC)C%11)c(OC)cc9N(C)C58)C76)C(O)C5(CC)C=CCN6CCC43C65)C2)C1 (stereo not given)
inactive: dose: 0.39 mg/kg/injection, schedule: Q01DX009 (ip), vehicle: saline 93 % of control | dose: 0.65 mg/kg/injection, schedule: Q01DX009 (ip), vehicle: saline 93 % of control

O=C1OC(C(O)CO)C(O)=C1O (stereo not given)
inactive: [9] 112 % of control | [18] 100 % of control

Nc1nc(SCc2ccccc2)c2ncn(C3OC(CO)CC3O)c2n1 (stereo not given)
inactive: [15] 109 % of control

COC1C(CO)OC(n2cnc3c(=S)nc(N)[nH]c32)C1O (stereo not given)
inactive: [15] 97 % of control | [16] 108 % of control

Cc1cc(N(CC(C)Br)CC(C)Br)ccc1N=Nc1ccccc1C(=O)O (stereo not given)
inactive: [10] 117 % of control | [1] 114 % of control

O=c1cc(CCl)[nH]nc1CCl
inactive: [19] 98 % of control | [10] 96 % of control | [1] 96 % of control

O=c1oc2c(O)c(O)cc3c(=O)oc4c(O)c(O)cc1c4c23
inactive: [13] 102 % of control | [14] 112 % of control | [15] 116 % of control | [16] 111 % of control | dose: 400.0 mg/kg/injection, schedule: Q01DX009 (ip), vehicle: Klucel (hydroxypropylcellulose) (HPC) 121 % of control

COc1ccc2c(c1)/C(=C/CCN(C)C)c1ccccc1S2
inactive: [17] 114 % of control | [5] 98 % of control and 105 % of control | [6] 106 % of control and 110 % of control
